From patent publication US11773066B2, “Indazolylcyanoethylamino compound, compositions of same, method of making, and methods of using thereof” (BOEHRINGER INGELHEIM ANIMAL HEALTH USA INC., priority 2018, dated 2023) come the findings set out here.

In brackets after ≈: the same amount, converted by molar mass.

The subject of assay [1] is Haemonchus contortus larvae. The experiment in a line: In vitro Haemonchus contortus larval motility (L1 to L3 development) assay, MIC90. The class given is cell-based. The note with it: 96 h, L1 larvae in nutrient medium, 27° C., 97% relative humidity, 4 days, motility of L3 vs DMSO control, read-out: MIC90 (minimum concentration inhibiting motility of the larvae by 90%). The method, then: The following procedure was used for the study: Twenty L1 Haemonchus contortus larvae were added to wells of a microtitre plate containing a nutrient medium and the test compound in DMSO. The microtitre plate was held at 27° C. and 97% Relative humidity for a 4 day period. Under these conditions the added larvae develop to the L3 stage. The efficacy of a compound is determined based on the motility of the resulting L3 larvae and compared to the motility of control wells treated with DMSO only.

Another assay relates to Haemonchus placei. The assay is described as follows: In vivo efficacy in experimentally infected calves, worm count reduction. The note with it: oral, single treatment Day 0, necropsy Day 16, vs untreated control, Compound I 2 mg/kg, eprinomectin 0.075 mg/kg, ivermectin 0.150 mg/kg. The source says:
(§1) The efficacy of Compound I against parasitic gastrointestinal nematodes in cattle when administered orally as an oral solution was studied. Thirty male castrate dairy calves of approximately 8 to 12 weeks of age were experimentally infected with parasitic nematodes. The calves were inoculated with Haemonchus […] Ostertagia ostertagi on Day -33 and with Cooperia punctata and Cooperia oncophora on Day -21. Calves were allocated to one of the six treatment groups. Calves in Treatment Group 1 were not treated. Calves in Treatment Groups 2-6 were treated on Day 0 as outlined in the Table 2 below with a formulation containing 5% (w/v) of Compound I in a carrier comprising 50% (v/v) PEG 400 with the remainder (QS to 130 mL0 PEG 300. [table] All calves were euthanized on Day 16 and the abomasum and small intestine were recovered from each calf and processed for parasite recovery. All five calves in the untreated control group harbored adequate infections of […]. ostertagi, C. punctate and C. oncophora. The efficacy of each treatment group relative to the control group is shown in Table 3 below: […]

A further assay has as its system Cooperia punctata. Described as above. The following applies: oral, single treatment Day 0, necropsy Day 16, vs untreated control, Compound I 2 mg/kg, eprinomectin 0.075 mg/kg, ivermectin 0.150 mg/kg.
Source text: as §1

The next assay relates to Cooperia oncophora. The description is as above. The following applies: oral; for % Reduction in Worm Counts, C. oncophora Males: single treatment Day 0, necropsy Day 16, vs untreated control, Compound I 2 mg/kg, eprinomectin 0.075 mg/kg, ivermectin 0.150 mg/kg; for efficacy against C. oncophora males in words: Compound I compared with eprinomectin (Group 3) or ivermectin (Group 4).
Source text: as §1

The test system of the next assay is Ostertagia ostertagi. The assay is described as above. The following applies: oral, single treatment Day 0, necropsy Day 16, vs untreated control, Compound I 2 mg/kg, eprinomectin 0.075 mg/kg, ivermectin 0.150 mg/kg.
Source text: as §1

The next assay deals with Cooperia spp. The assay is described as above. The note with it: oral; for % Reduction in Worm Counts, Cooperia spp. Females: single treatment Day 0, necropsy Day 16, vs untreated control, Compound I 2 mg/kg, eprinomectin 0.075 mg/kg, ivermectin 0.150 mg/kg.
Source text: as §1

With `CC(C#N)(Cn1cc2c(Cl)cc(Cl)cc2n1)NC(=O)c1ccc(SC(F)(F)F)cc1` (centres unmarked) [‘999 App, 2.041], in assay [1], the MIC90 turned out to be 2.4 ng/mL (≈ 5.07 nM).
`CC(C#N)(Cn1cc2c(C(F)(F)F)cc(Cl)c(Cl)c2n1)NC(=O)c1ccc(SC(F)(F)F)cc1` (centres unmarked) [Compound II]: in assay [1], the MIC90 was determined as 1.2 ng/mL (≈ 2.22 nM).
Turning to eprinomectin, in the assay on Haemonchus placei, the “% Reduction in Worm Counts, H. placei Adults” value (shortened to “% Reduction … H. placei Adults”) came out at 98.9%. Further, the “% Reduction in Worm Counts, C. punctata Males” value (“% Reduction … C. punctata Males” below) in the assay on Cooperia punctata was 94.7%. The “% Reduction in Worm Counts, C. oncophora Males” value (shortened to “% Reduction … C. oncophora Males”) in the assay with Cooperia oncophora stood at 0%. Also, in the assay with Ostertagia ostertagi, the “% Reduction in Worm Counts, O. ostertagi Females” value came out at 99.4% and the “% Reduction in Worm Counts, O. ostertagi Males” value (from here on “% Reduction … O. ostertagi Males”) amounted to 95.7%. The “% Reduction in Worm Counts, Cooperia spp. Females” value with Cooperia spp. is 55.8%.
On to ivermectin, for which, in the assay on Haemonchus placei, the “% Reduction … H. placei Adults” value is listed as 82%. Besides, the “% Reduction … C. punctata Males” value in the assay on Cooperia punctata worked out at 91%. Moreover, in the assay on Cooperia oncophora, the “efficacy against C. oncophora males in words” value was “not effective” and the “% Reduction … C. oncophora Males” value is reported as 0%. In the assay with Ostertagia ostertagi, the “% Reduction in Worm Counts, O. ostertagi Females” value is recorded as 81% and the “% Reduction … O. ostertagi Males” value came out at 75%. In addition, the “% Reduction in Worm Counts, Cooperia spp. Females” value with Cooperia spp. came out at 46%.
Consider `CC(C#N)(Cn1cc2c(Cl)cc(Cl)c(Cl)c2n1)NC(=O)c1ccc(SC(F)(F)F)cc1` (centres unmarked) [‘999 App, 2.049], for which, in assay [1], the MIC90 turned out to be 1.2 ng/mL (≈ 2.36 nM).
Same read-out and setting: next, `CC(C#N)(Cn1cc2ccc(Cl)cc2n1)NC(=O)c1ccc(SC(F)(F)F)cc1` (centres unmarked) [‘999 App, 2.038]: 2.4 ng/mL (≈ 5.47 nM).
Regarding `CC(C#N)(Cn1cc2c(C(F)F)cc(Cl)c(Cl)c2n1)NC(=O)c1ccc(SC(F)(F)F)cc1` (centres unmarked) [Compound I], in the assay on Haemonchus placei, the “% Reduction … H. placei Adults” value is 100.0%. Further, the “% Reduction … C. punctata Males” value in the assay on Cooperia punctata amounted to 100.0%. For the same molecule, in the assay with Cooperia oncophora, the “efficacy against C. oncophora males in words” value is reported as “significantly more effective” and the “% Reduction … C. oncophora Males” value is 83.0%. Moreover, in the assay with Ostertagia ostertagi, the “% Reduction in Worm Counts, O. ostertagi Females” value came out at 96.4% and the “% Reduction … O. ostertagi Males” value is 96.3%. Further, the “efficacy against Cooperia spp. female worms in words” value with Cooperia spp. (Compound I compared with eprinomectin (Group 3) or ivermectin (Group 4)) is listed as “significantly more effective”. The “% Reduction in Worm Counts, Cooperia spp. Females” value with Cooperia spp. stood at 90.9%. The MIC90 in assay [1] amounted to 0.3 ng/mL (≈ 0.573 nM).
